# According to patent US11576987B2, “Compositions and methods of treating melanoma” (UNIVERSITY OF IOWA RESEARCH FOUNDATION, priority 2016, dated 2023):
# Structures can show the parent of a compound that is named as a salt.
# How the values were obtained:
# MCR1 expression = assay: Flow cytometry analysis of MCR1 expression in malignant melanoma cells; format: cell-based, human; settings: BRAF^V600E mutant melanoma cell lines (A2058, A375), 3 mmole 4-PBA, 4 h and 24 h
# Protocol: FIG. 1: Flowcytometry analysis of MCR1 expression in A375 malignant melanoma cells. A375 cells were treated with either 2 μmole Vemurafenib or 3 mmole 4-PBA for 4 h and 24 h (n=3). The treated and untreated (control) cells were stained with anti-MC1R-phycoerythrin (PE) monoclonal antibody conjugate. Fluorescence intensity was corrected by auto-fluorescence of cells without staining and data were expressed as relative (vs control) fluorescence intensity±SD. Statistical significance was determined by Student's T-test (*P<0.05; **P<0.01; ***P<0.001; ****P<0.0001).
# (§1) FIG. 2: Flowcytometry analysis of MCR1 expression in A2058 malignant melanoma cells. […] Fluorescence intensity was corrected by auto-fluorescence of cells without staining and data were expressed as relative (vs control) fluorescence intensity±SD. Statistical significance was determined by Student's T-test (*P<0.05; **P<0.01; ***P<0.001; ****P<0.0001).
# as §1, with “3:” for “2:”, “SK-Me13” for “A2058”, “****P<0.0001, N. S. non-significant).” for “****P<0.0001).”
# FIGS. 11A-11D. […] Fluorescence intensity was corrected by PE-conjugated isotype. […]
# [1] = PBA co-administration: kidney and tumor uptake of [203Pb]DOTA-MCR1; format: in vivo, mice; settings: PBA 120 mg/kg co-administered i.v. or i.p., 2 h p.i.
# Protocol: FIGS. 14A-14B. […] Results are ID %/g tissue±SD; **P<0.01; ****P<0.0001. (B Right) Pre-administered of PBA (i.p. 60 mg/kg) and BRAFi (vemurafenib; p.o. 5 mg/kg) 3 h prior to tail vein injection of 13 MBq [^203Pb]DOTA-MCR1 in human (A2058) melanoma-bearing athymic nu/nu mice (SPECT image 1 h p.i.); (B Left) An identical animal was administered an identical dose of [^203Pb]DOTA-MCR1 without PBA/BRAFi (saline). Images were identically processed and analyzed using Inveon Workplace software (identical contrast, intensity, etc.).
# PBA relieves ER-stress through nonspecific binding to misfolded proteins in the ER. Thus, it was hypothesized that co-injection could inhibit peptide uptake in kidneys in the same fashion as amino acid co-infusions used clinically. This is reasonable because the megalin-cubulin system for reuptake and recirculation of nutrients in the proximal and distal tubules involves nonspecific binding and endocytosis of proteins, amino acids, and nutrients. results support the hypothesis that co-injection of PBA can serve to reduce kidney accumulation of radiopeptides in the kidneys (FIGS. 14A-B).
# [2] = test system: BRAFi-resistant A375VR cells; assay: Clonogenic survival of BRAFi-resistant melanoma cells; format: cell-based, human; settings: in combination with 5 μM vemurafenib, up to 6 days, PBA as low as 500 μM
# Protocol: FIGS. 13A-13B. PBA treatment promotes cell death of BRAFi-resistant metastatic melanoma and upregulates MCR1 expression in a time dpe. (A) BRAFi-resistant A375VR cells were incubated with 5 μM vemurafenib in combination with ER-stress-relieving drug 4-PBA for up to 6 days. […] (B) Flow cytometry analysis of MCR1 expression in A2058 and A375 malignant melanoma cells. Cells were treated with 3 mmole 4-PBA for 4 h and 24 h (n=3). The treated and untreated (control) cells were stained with anti-MC1R-phycoerythrin (PE) monoclonal antibody conjugate. Fluorescence intensity was corrected by auto-fluorescence of cells without staining and data were expressed as relative fluorescence intensity (IF) (vs. control)±SD.
# Accumulation of misfolded-proteins causes upregulation and detachment of ER resident protein GRP78 from ER sensors proteins—activating the unfolded protein response (UPR) and downstream signaling pathways (including autophagy). […] Thus, the potential for a pharmacological treatment that would sensitize BRAFi-resistant cells to BRAFi by reducing ER-stress was considered. BRAFi-resistant A375VR melanoma cells were incubated with BRAFi vemurafenib alone and in combination with ER-stress relieving PBA.
smiles,measurement,setting,value
"O=C(O)CCCc1ccccc1 [PBA, 4-phenylbutyric acid, sodium salt]",time dependency of MCR1 expression,MCR1 expression,significant (time dependent) increase in MCR1 expression
same,kidney uptake of [203Pb]DOTA-MCR1,[1],significantly blocked kidney uptake
same,tumor accumulation of [203Pb]DOTA-MCR1,[1],did not affect tumor accumulation
same,clonogenic cell death,[2],~90%
